# Assay results from patent US20190185518A9, “WARHEAD-CONTAINING PEPTIDOMIMETIC MACROCYCLES AS MODULATORS OF BFL-1” (AILERON Therapeutics, Inc., priority 2017, published 2019).
# Starred links: 1 amine or outer side, 2 acyl side, 3 side chain; linkers in the order of their positions; H or OH if unused. Positions of bridges follow the written chain, without caps; N, C: chain ends. Non-standard residues stand in square brackets, D forms with d. Residues, ends and D or L forms follow the SMILES beside them. Phe(4-F) = N[C@@H](Cc1ccc(F)cc1)C(=O)O; X1 = CC(C)CCC[C@H](N[*:1])C(=O)[*:2]; tBuAla = CC(C)(C)C[C@H](N)C(=O)O; R8 = C=CCCCCCC[C@@](C)(N)C(=O)O; S5 = C=CCCC[C@](C)(N)C(=O)O
# Biological target: Mcl-1 (Homo sapiens, UniProt Q07820)
# Sequence (Q07820 whole entry, species assumed): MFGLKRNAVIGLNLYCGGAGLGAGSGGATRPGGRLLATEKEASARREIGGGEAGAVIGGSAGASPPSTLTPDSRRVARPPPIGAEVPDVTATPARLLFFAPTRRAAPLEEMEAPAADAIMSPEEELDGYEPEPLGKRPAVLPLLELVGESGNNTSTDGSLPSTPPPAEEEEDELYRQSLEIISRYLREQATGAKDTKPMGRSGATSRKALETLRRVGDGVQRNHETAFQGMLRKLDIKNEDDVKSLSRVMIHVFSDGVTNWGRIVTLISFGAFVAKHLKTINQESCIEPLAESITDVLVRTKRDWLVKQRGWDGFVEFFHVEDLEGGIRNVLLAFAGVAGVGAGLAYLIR
# Assay: Ki determination for Mcl-1 (BCL-2 family binding spectrum)
# Details: read-out: Ki MCL-1
# Description: To assess the binding and affinity of compounds that antagonize the interaction between a peptide and an acceptor protein, a fluorescence polarization assay (FPA) utilizing a fluoresceinated peptidomimetic macrocycle derived from a peptidomimetic precursor sequence is used, for example. The FPA technique measures the molecular orientation and mobility using polarized light and fluorescent tracer. […] A compound that antagonizes the interaction between the fluoresceinated peptidomimetic macrocycle and an acceptor protein will be detected in a competitive binding FPA experiment.
# Antagonist binding activity is measured, for example, by fluorescence polarization on a luminescence spectrophotometer (e.g. Perkin-Elmer LS50B). Kd values may be determined by nonlinear regression analysis using, for example, Graphpad Prism software (GraphPad Software, Inc., San Diego, Calif.).
row,Ki,SMILES
1,10.6 nM,CC[C@H](C)[C@H](NC(C)=O)C(=O)N[C@@H](Cc1c[nH]c2ccccc12)C(=O)N[C@H](C(=O)N[C@@H](C)C(=O)N[C@@H](CCC(N)=O)C(=O)N[C@@H](C)C(=O)N[C@@H](CC(C)C)C(=O)N[C@@H](CCCNC(=N)N)C(=O)N[C@]1(C)CCCCCCC=CCCC[C@@](C)(C(=O)N[C@@H](Cc2ccc(O)cc2)C(=O)N[C@@H](Cc2ccc(O)cc2)C(=O)N[C@@H](C)C(=O)N[C@@H](CCCNC(=N)N)C(=O)N[C@@H](CCCNC(=N)N)C(N)=O)NC(=O)[C@H](CC(N)=O)NC(=O)[C@H](Cc2ccccc2)NC(=O)[C@H](CCC(=O)O)NC(=O)[C@H](CC(=O)O)NC(=O)CNC(=O)[C@H]([C@@H](C)CC)NC1=O)[C@@H](C)CC [compound 1628] (Ac-IWIAQALR[R8]IGDEFN[S5]YYARR-NH2; staple 9-16)
2,19.7 nM,CC[C@H](C)[C@H](NC(C)=O)C(=O)N[C@@H](C)C(=O)N[C@H](C(=O)N[C@@H](C)C(=O)N[C@@H](CCC(N)=O)C(=O)N[C@@H](C)C(=O)N[C@@H](CC(C)C)C(=O)N[C@@H](CCCNC(=N)N)C(=O)N[C@]1(C)CCCCCCC=CCCC[C@@](C)(C(=O)N[C@@H](Cc2ccc(O)cc2)C(=O)N[C@@H](Cc2ccc(O)cc2)C(=O)N[C@@H](C)C(N)=O)NC(=O)[C@H](CC(N)=O)NC(=O)[C@H](Cc2ccccc2)NC(=O)[C@H](C)NC(=O)[C@H](CC(=O)O)NC(=O)CNC(=O)[C@H]([C@@H](C)CC)NC1=O)[C@@H](C)CC [compound 1648] (Ac-IAIAQALR[R8]IGDAFN[S5]YYA-NH2; staple 9-16)
3,21.2 nM,CC[C@H](C)[C@H](NC(C)=O)C(=O)N[C@@H](Cc1c[nH]c2ccccc12)C(=O)N[C@@H](CCCC(C)C)C(=O)N[C@@H](C)C(=O)N[C@@H](CCC(N)=O)C(=O)N[C@@H](C)C(=O)N[C@@H](CC(C)C)C(=O)N[C@@H](CCCNC(=N)N)C(=O)N[C@]1(C)CCCCCCC=CCCC[C@@](C)(C(=O)N[C@@H](Cc2ccc(O)cc2)C(=O)N[C@@H](Cc2ccc(O)cc2)C(=O)N[C@@H](C)C(N)=O)NC(=O)[C@H](CC(N)=O)NC(=O)[C@H](Cc2ccccc2)NC(=O)[C@H](C)NC(=O)[C@H](CC(=O)O)NC(=O)CNC(=O)[C@H]([C@@H](C)CC)NC1=O [compound 1678] (Ac-IW[X1]AQALR[R8]IGDAFN[S5]YYA-NH2; staple 9-16)
4,13.7 nM,CC[C@H](C)[C@H](NC(C)=O)C(=O)N[C@@H](Cc1c[nH]c2ccccc12)C(=O)N[C@H](C(=O)N[C@@H](C)C(=O)N[C@@H](CCC(N)=O)C(=O)N[C@@H](C)C(=O)N[C@@H](CC(C)C)C(=O)N[C@@H](CCCNC(=N)N)C(=O)N[C@]1(C)CCCCCC/C=C\CCC[C@@](C)(C(=O)N[C@@H](Cc2ccc(O)cc2)C(=O)N[C@@H](Cc2ccc(O)cc2)C(=O)N[C@@H](C)C(N)=O)NC(=O)[C@H](CC(N)=O)NC(=O)[C@H](Cc2ccccc2)NC(=O)[C@H](C)NC(=O)[C@H](CC(=O)O)NC(=O)CNC(=O)[C@H](CC(C)(C)C)NC1=O)[C@@H](C)CC [compound 1701] (Ac-IWIAQALR[R8][tBuAla]GDAFN[S5]YYA-NH2; staple (Z) 9-16)
5,4.8 nM,CC[C@H](C)[C@H](NC(C)=O)C(=O)N[C@@H](Cc1c[nH]c2ccccc12)C(=O)N[C@H](C(=O)N[C@@H](C)C(=O)N[C@@H](CCC(N)=O)C(=O)N[C@@H](C)C(=O)N[C@@H](CC(C)C)C(=O)N[C@@H](CCCNC(=N)N)C(=O)N[C@]1(C)CCCCCCC=CCCC[C@@](C)(C(=O)N[C@@H](Cc2ccc(O)cc2)C(=O)N[C@@H](Cc2ccc(F)cc2)C(=O)N[C@@H](C)C(N)=O)NC(=O)[C@H](CC(N)=O)NC(=O)[C@H](Cc2ccccc2)NC(=O)[C@H](C)NC(=O)[C@H](CC(=O)O)NC(=O)CNC(=O)[C@H]([C@@H](C)CC)NC1=O)[C@@H](C)CC [compound 1710] (Ac-IWIAQALR[R8]IGDAFN[S5]Y[Phe(4-F)]A-NH2; staple 9-16)
6,2.2 nM,CC[C@H](C)[C@H](NC(=O)[C@H](Cc1c[nH]c2ccccc12)NC(=O)[C@H](CCC(=O)O)NC(C)=O)C(=O)N[C@@H](C)C(=O)N[C@@H](C)C(=O)N[C@@H](C)C(=O)N[C@@H](CC(C)C)C(=O)N[C@@H](CCCNC(=N)N)C(=O)N[C@]1(C)CCCCCCC=CCCC[C@@](C)(C(=O)N[C@@H](Cc2ccc(O)cc2)C(=O)N[C@@H](Cc2ccc(O)cc2)C(=O)N[C@@H](C)C(N)=O)NC(=O)[C@H](CC(N)=O)NC(=O)[C@H](Cc2ccccc2)NC(=O)[C@H](C)NC(=O)[C@H](CC(=O)O)NC(=O)CNC(=O)[C@H]([C@@H](C)CC)NC1=O [compound 1716] (Ac-EWIAAALR[R8]IGDAFN[S5]YYA-NH2; staple 9-16)
7,3.9 nM,CC[C@H](C)[C@H](NC(=O)[C@H](Cc1c[nH]c2ccccc12)NC(=O)[C@H](CCCCN)NC(C)=O)C(=O)N[C@@H](C)C(=O)N[C@@H](C)C(=O)N[C@@H](C)C(=O)N[C@@H](CC(C)C)C(=O)N[C@@H](CCCNC(=N)N)C(=O)N[C@]1(C)CCCCCCC=CCCC[C@@](C)(C(=O)N[C@@H](Cc2ccc(O)cc2)C(=O)N[C@@H](Cc2ccc(O)cc2)C(=O)N[C@@H](C)C(N)=O)NC(=O)[C@H](CC(N)=O)NC(=O)[C@H](Cc2ccccc2)NC(=O)[C@H](C)NC(=O)[C@H](CC(=O)O)NC(=O)CNC(=O)[C@H]([C@@H](C)CC)NC1=O [compound 1718] (Ac-KWIAAALR[R8]IGDAFN[S5]YYA-NH2; staple 9-16)
8,3.6 nM,CC[C@H](C)[C@H](NC(=O)[C@H](Cc1c[nH]c2ccccc12)NC(=O)[C@H](Cc1c[nH]cn1)NC(C)=O)C(=O)N[C@@H](C)C(=O)N[C@@H](C)C(=O)N[C@@H](C)C(=O)N[C@@H](CC(C)C)C(=O)N[C@@H](CCCNC(=N)N)C(=O)N[C@]1(C)CCCCCCC=CCCC[C@@](C)(C(=O)N[C@@H](Cc2ccc(O)cc2)C(=O)N[C@@H](Cc2ccc(O)cc2)C(=O)N[C@@H](C)C(N)=O)NC(=O)[C@H](CC(N)=O)NC(=O)[C@H](Cc2ccccc2)NC(=O)[C@H](C)NC(=O)[C@H](CC(=O)O)NC(=O)CNC(=O)[C@H]([C@@H](C)CC)NC1=O [compound 1719] (Ac-HWIAAALR[R8]IGDAFN[S5]YYA-NH2; staple 9-16)
9,3.9 nM,CC[C@H](C)[C@H](NC(=O)[C@H](Cc1c[nH]c2ccccc12)NC(=O)[C@H](CO)NC(C)=O)C(=O)N[C@@H](C)C(=O)N[C@@H](C)C(=O)N[C@@H](C)C(=O)N[C@@H](CC(C)C)C(=O)N[C@@H](CCCNC(=N)N)C(=O)N[C@]1(C)CCCCCCC=CCCC[C@@](C)(C(=O)N[C@@H](Cc2ccc(O)cc2)C(=O)N[C@@H](Cc2ccc(O)cc2)C(=O)N[C@@H](C)C(N)=O)NC(=O)[C@H](CC(N)=O)NC(=O)[C@H](Cc2ccccc2)NC(=O)[C@H](C)NC(=O)[C@H](CC(=O)O)NC(=O)CNC(=O)[C@H]([C@@H](C)CC)NC1=O [compound 1720] (Ac-SWIAAALR[R8]IGDAFN[S5]YYA-NH2; staple 9-16)
10,4.8 nM,CC[C@H](C)[C@H](NC(=O)[C@H](Cc1c[nH]c2ccccc12)NC(=O)[C@H](CCC(N)=O)NC(C)=O)C(=O)N[C@@H](C)C(=O)N[C@@H](C)C(=O)N[C@@H](C)C(=O)N[C@@H](CC(C)C)C(=O)N[C@@H](CCCNC(=N)N)C(=O)N[C@]1(C)CCCCCCC=CCCC[C@@](C)(C(=O)N[C@@H](Cc2ccc(O)cc2)C(=O)N[C@@H](Cc2ccc(O)cc2)C(=O)N[C@@H](C)C(N)=O)NC(=O)[C@H](CC(N)=O)NC(=O)[C@H](Cc2ccccc2)NC(=O)[C@H](C)NC(=O)[C@H](CC(=O)O)NC(=O)CNC(=O)[C@H]([C@@H](C)CC)NC1=O [compound 1721] (Ac-QWIAAALR[R8]IGDAFN[S5]YYA-NH2; staple 9-16)
